Columns and labels:
[1] = system: exercise strength and stamina; test: Inhalation exposure of the inventor to androstenone released from a polyethylene bag: exercise strength and stamina; type: in vivo; details: human (inventor), after about five to seven days of exposure
Source text: (§1) For example, increased strength was evidenced by an at least 5-10%, and more typically 10-20% increase of weight that was lifted as compared to the same exercise before exposure to the pheromone.
With respect to the effects afforded by contemplated compositions and devices, it is generally contemplated that the steroid pheromones will exert both a desirable behavioral effect as well as a desirable non-behavioral effect. […] The term “exercise strength” as used herein refers to an ability to lift a particular weight in a given exercise routine (e.g., lifting of 100 pounds on a bench press). Thus, where exercise strength is increased, heavier weights can be lifted. Most typically the increase in exercise strength is between 5 and 40%, and more typically between 10 and 25%. […] The term “exercise stamina” as used herein refers to an ability to lift a particular weight in a given exercise routine for a maximum of repeats Rmax (e.g., lifting of 100 pounds on a bench press ten times). Thus, where exercise stamina is increased, the weight can be lifted more that Rmax times. Most typically the increase in exercise strength is between 5 and 30%, and more typically between 10 and 20%.

[2] = system: sinusitis; test: Inhalation exposure of the inventor to androstenone released from a polyethylene bag: sinusitis signs and symptoms; type: in vivo; details: human (inventor); about 500 mg in polyethylene bag; about five to seven days of exposure, two to eight hours per day
Source text: as §1
Therefore, it is also contemplated that the compositions and methods presented herein may present a convenient matter to treat and/or alleviate signs and symptoms of airway inflammation. Most preferably, such inflammation may be sinusitis, asthma, and allergic airway inflammation. In yet other contemplated aspects, additional behavioral effects may be advantageously conferred by use of contemplated compositions and methods, especially including feeling of increased energy, sexual desire, and self-confidence.

Q: Which results are given for `C[C@]12CCC(=O)C[C@@H]1CC[C@@H]1[C@@H]2CC[C@]2(C)C=CC[C@@H]12` [androstenone, 5α-androst-16-en-3-one]?
A: increase of weight that was lifted as compared to the same exercise before exposure (exercise strength) ([1]; 'at least'): 5-10%; increase of weight that was lifted as compared to the same exercise before exposure (exercise strength) ([1]; 'more typically'): 10-20%; increase in number of repeats per exercise (exercise stamina) ([1]; 'most typically'): 5-20%; signs and symptoms of a previously diagnosed sinusitis [2]: all signs and symptoms of a previously diagnosed sinusitis had disappeared

From patent US20070048231A1, “Pheromone compositions and methods” (priority 2005, published 2007)
